{"source": "patent US20240141291A1", "about": "“FUNCTIONAL BRAIN REGION-SPECIFIC NEURAL SPHEROIDS AND METHODS OF USE” (THE UNITED STATES OF AMERICA, AS REPRESENTED BY THE …, priority 2021, published 2024)", "format_in_all_cases": "cell-based, human", "key": {"[1]": {"test_system": "single neuron spheroids expressing hM3Dq or hM4Di", "assay": "Chemogenetic (DREADDs) activation with CNO, FLIPR calcium activity", "details": "1 uM CNO", "protocol": "Viruses and dyes: To assess calcium activity, the calcium dye, Cal6 (Molecular Devices), and genetically encoded calcium indicator, GCaMP6f (Addgene, cat #100836-AAV9) were used. Cal6 was used according to manufacturer's instructions and 10 mL of maintenance media was added to each vial. Two hours before activity was recorded, half of the spheroid media was exchanged for media with Cal6. The plates were covered in foil and placed in the incubator at 37° C. during the 2-hour (hr) incubation period. Since all viruses used were adeno-associated viruses (AAV), they were added to the media on day 7 to allow for 2-weeks expression prior to recording or testing. […]\nFluorescent Imaging plate Reader (FLIPR): The FLIPR Penta (Molecular Devices) was used to assess calcium fluorescence across the 384-well plate simultaneously and to observe changes after treatment with compounds. The evening before calcium activity was measured, plates were sealed with parafilm and centrifuged at 1485×g for 2-min to get spheroids to the bottom of the well in a centered position. On the day of recording, the plate used for recording was placed in the read plate position inside of the FLIPR following the 2-hour Cal6 incubation at 37° C. […] Fluorescent image reads were taken every 0.6 seconds for all plates, with exposure time of 0.03 and 50% excitation intensity. […]"}, "APOE4 PFC-like spheroids": {"test_system": "APOE4 PFC-like spheroids", "assay": "Alzheimer's Disease model, FLIPR calcium activity after compound treatment", "details": "90 min after treatment, Memantine 10 μM, Donepezil 1 & 10 uM, EUK-134 1 & 10 μM", "protocol": "(§1) Fluorescent Imaging plate Reader (FLIPR): The FLIPR Penta (Molecular Devices) was used to assess calcium fluorescence across the 384-well plate simultaneously and to observe changes after treatment with compounds. The evening before calcium activity was measured, plates were sealed with parafilm and centrifuged at 1485×g for 2-min to get spheroids to the bottom of the well in a centered position. On the day of recording, the plate used for recording was placed in the read plate position inside of the FLIPR following the 2-hour Cal6 incubation at 37° C. Standard filter sets were used for Cal6 imaging with excitation set at 470-495 and emission at 515-575 nm. Fluorescent image reads were taken every 0.6 seconds for all plates, with exposure time of 0.03 and 50% excitation intensity. Recordings from the initial seven plates consisted of 1000 reads and were 10-min recordings with 2.5 gain, while the final two plates consisted of 500 reads (5-min recordings) with a gain of 2. Baseline recordings were taken across all plates and, if applicable, more recordings were obtained 1-, 30-, 60-, and/or 90-min after compound treatment. In between recordings, plates were wrapped in foil and placed back in the incubator at 37° C.\n384 Pin Tool: A 384 well pin tool (Rexroth) was used to transfer compounds simultaneously to the spheroid plate. Prior to compound transfer, the pin tool went through four wash cycles where pins were rinsed with dimethyl sulfoxide (DMSO), followed by methanol, then deionized (DI) water, to ensure the pins were clean. Compound transfer via the 384 well pin tool occurred after the baseline recordings with the fluorescent imaging plate reader (FLIPR). […]\nCalcium Activity Analysis: Calcium oscillatory peak detection data from FLIPR recordings was obtained through ScreenWorks 5.1 (Molecular Devices). […] There, percent coefficient of variance (% CV) was calculated within each plate to measure how variable each parameter exported was. […]"}, "PFC-like spheroids [2]": {"test_system": "PFC-like spheroids", "assay": "FLIPR calcium activity with Cal6 dye, control compounds / DAMGO / AD compounds (Example 3)", "details": "PFC-like spheroids; recordings 1-, 30-, 60-min after treatment", "protocol": "(§2) Viruses and dyes: To assess calcium activity, the calcium dye, Cal6 (Molecular Devices), and genetically encoded calcium indicator, GCaMP6f (Addgene, cat #100836-AAV9) were used. Cal6 was used according to manufacturer's instructions and 10 mL of maintenance media was added to each vial. Two hours before activity was recorded, half of the spheroid media was exchanged for media with Cal6. The plates were covered in foil and placed in the incubator at 37° C. during the 2-hour (hr) incubation period. Since all viruses used were adeno-associated viruses (AAV), they were added to the media on day 7 to allow for 2-weeks expression prior to recording or testing. All viruses were added to the media at 2e5 multiplicity of infection (MOI). GCaMP6f infection occurred via an adeno-associated virus serotype 9 (AAV9) expressed under the CAG promoter for expression in both neurons and astrocytes. Designer receptors exclusively activated by designer drugs (DREADDs) viruses were used to stimulate and inhibit neuronal activity within spheroids. Both viruses were retrograde AAVs expressed under the human Synapsin promoter for expression in neurons and fused with an mCherry fluorophore. The DREADDs viruses either inserted the designer receptor hM4D(Gi), an inhibitory G-protein coupled receptor, or hM3D(Gq), a stimulatory G-protein coupled receptor. Clozapine-N-oxide (CNO, Tocris cat #4936) was suspended in dimethyl sulfoxide (DMSO) and used as the designer drug to activate the DREADDs viruses. CNO was tested at 1 and 10 μM, with data reported from the 1 μM concentration.\nas §1\nDAMGO was reconstituted in water at a 1 mM concentration and diluted in media to 20 µM such that spheroids would be treated with a final concentration of 10 μM after the half media exchange. Two aspects of OUD were modeled, chronic treatment along with opioid withdrawal. For spheroids subjected to chronic DAMGO treatment, 20 μM DAMGO in maintenance media was added via half media exchange beginning on day 10, with treatments occurring every other day for 10 days, giving a total of five treatments.\n384 Pin Tool: A 384 well pin tool (Rexroth) was used to transfer compounds simultaneously to the spheroid plate. Prior to compound transfer, the pin tool went through four wash cycles where pins were rinsed with dimethyl sulfoxide (DMSO), followed by methanol, then deionized (DI) water, to ensure the pins were clean. Compound transfer via the 384 well pin tool occurred after the baseline recordings with the fluorescent imaging plate reader (FLIPR). Here, 60 nL of compound suspended in DMSO was transferred to 60 µL of media in each well, diluting the compounds by 1000-fold and giving a final DMSO concentration of 0.1%."}, "VTA-like spheroids [3]": {"test_system": "VTA-like spheroids", "assay": "FLIPR calcium activity with Cal6 dye, control compounds / DAMGO (Example 3)", "details": "VTA-like spheroids; recordings 1-, 30-, 60-min after treatment", "protocol": "as §2, §1\nDAMGO was reconstituted in water at a 1 mM concentration and diluted in media to 20 µM such that spheroids would be treated with a final concentration of 10 μM after the half media exchange. Two aspects of OUD were modeled, chronic treatment along with opioid withdrawal. […]\n384 Pin Tool: A 384 well pin tool (Rexroth) was used to transfer compounds simultaneously to the spheroid plate. […] Compound transfer via the 384 well pin tool occurred after the baseline recordings with the fluorescent imaging plate reader (FLIPR). […]"}, "VTA-like spheroids [4]": {"test_system": "VTA-like spheroids", "assay": "FLIPR calcium activity profiling, compound addition (Examples 1-2)", "details": "FLIPR recordings 1-, 30-, 70-min after compound (t1, t30, t70)", "protocol": "(§3) To examine neuronal activity changes as a response to compound treatment, calcium activity was assessed using a Fluorescent Imaging Plate Reader (FLIPR) Penta (Molecular Devices). FLIPR Calcium 6 Assay kits were purchased from Molecular Devices (PN: R8190). On day of activity profiling, 96-well or 384-well ULA round bottom (black sides, clear bottom) plates containing spheroids were removed from incubator. Fresh FLIPR Calcium 6 dye was prepared by diluting each vial in 10 ml of freshly prepared, phenol-free complete spheroid maturation media and vortexed for 2 minutes. Half of the media was removed from each well (45 μl from 384-well plate wells, 100 ul from 96-well plate wells) and replaced with equal amounts freshly prepared FLIPR Calcium 6 dye, followed by a 2-hour incubation in the dark in a 37 C, 5% CO2 incubator. After 2-hours, plates were removed and kept at room temperature for 10 minutes, then imaged and calcium activity read using the Molecular Devices FLIPR Penta High-Throughput Cellular Screening System. The FLIPR incubator stage was pre-warmed to 37° C. approximately 30 minutes prior to imaging. Standard filter sets were used for Cal6 imaging (excitation 470-495 and emission 515-575 nm). FLIPR recordings were obtained with the camera in normal mode, and settings included: gain was set to 2.5, exposure time to 0.03 seconds, and excitation intensity to 50%. Fluorescent image reads were taken every 0.6 seconds for a total of 1000 reads over a total run time of 10 minutes. Four recordings total were captured: baseline activity, 1-min after compound treatment, 30- and 70-min after compound treatment.\n(§4) After baseline activity, cell plates were removed from the FLIPR and transferred to a 384-well pin tool instrument. Prior to compound addition, the pin tool was subjected to 4 wash cycles exposing the pins to water, methanol, and DMSO each time. Compounds, including either “QC compounds” (compounds with known mechanism of action, listed in results) or the mu opioid receptor selective-agonist DAMGO, were transferred from a compound source plate to the 384-well spheroid plate. Immediately after compound transfer, the cell plate was placed back in the FLIPR for the recording that was 1-min after compound transfer to begin. After this 10-min recording, another recording was captured 30-min after compounds were transferred. After the 30-min recording, the plate was again removed from the FLIPR and transferred to the pin tool instrument. During this phase of compound transfer, naloxone was transferred to wells that received DAMGO during the first compound transfer. Following this second compound transfer, the cell plate was placed back in the FLIPR and a final recording was obtained 30-min later, and 70-min after the initial compound transfer.\n(§5) The FLIPR software ScreenWorks PeakPro 2.0 was used for the initial analysis of calcium activity using automated peak detection settings. With these settings, average peak statistics over each 10-min recording for each well were exported from PeakPro to Microsoft Excel. ScreenWorks Peak Pro 2.0 software was used to extract 17 activity features describing different aspects of calcium activity profiles. These included peak amplitude (PkA), peak amplitude standard deviation (PkASD), peak count (PkCt), peak rate (measured as peaks per minute, PpM), peak rate SD, peak spacing (PkSp), peak spacing SD (PkSpSD), peak spacing regularity, area under the curve (AUC), AUC SD, peak rise slope, peak rise slope SD, peak rise time (PkRt), peak ride time SD (PkRtSD), peak decay slope, peak decay slope SD, peak decay time (PkDt), and peak decay time SD (PkDtSD). To assess variability of these peak parameters, percent coefficients of variance (CV) were calculated by dividing the standard deviation/mean and multiplying by 100 for each designer spheroid type, and those with % CV's […] 20% were removed from future analysis. […]"}, "PFC-like spheroids [5]": {"test_system": "PFC-like spheroids", "assay": "FLIPR calcium activity profiling, compound addition (Examples 1-2)", "details": "FLIPR recordings 1-, 30-, 70-min after compound (t1, t30, t70)", "protocol": "as §3, §4, §5"}}, "note": "Entries after “also recorded” stand apart in the source; their conditions may differ."}
{"smiles": "C[N+]1([O-])CCN(C2=Nc3cc(Cl)ccc3Nc3ccccc32)CC1", "note": "[CNO, Clozapine-N-oxide]", "values": [{"measurement": "effect of chemogenetic activation on peak parameters", "setting": "[1]; spheroids with Dopa or Gluta composition expressing hM3Dq", "value": "chemogenetic activation increased measures of peak frequency such as peak count and rate while reducing parameters such as peak spacing and peak width"}, {"measurement": "effect of chemogenetic inhibition on peak parameters", "setting": "[1]; spheroids with Dopa or Gluta composition expressing hM4Di", "value": "the opposite was observed for these spheroids subjected to chemogenetic inhibition"}]}
{"smiles": "COc1cc2c(cc1OC)C(=O)C(CC1CCN(Cc3ccccc3)CC1)C2", "note": "(stereo not drawn) [Donepezil]", "values": [{"measurement": "reversal of APOE4-induced deficits in peak count and spacing", "setting": "APOE4 PFC-like spheroids", "value": "reverse deficits caused by APOE4 GABA neurons; also recorded: restore deficits in peak count"}]}
{"smiles": "COc1cccc(C=NCCN=Cc2cccc(OC)c2[O-])c1[O-].[Cl-].[Mn+3]", "note": "[EUK-134]", "values": [{"measurement": "reversal of APOE4-induced deficits in peak count and spacing", "setting": "APOE4 PFC-like spheroids", "value": "reverse deficits caused by APOE4 GABA neurons; also recorded: restore deficits in peak count"}]}
{"smiles": "CC12CC3CC(C)(C1)CC(N)(C3)C2", "note": "[Memantine]", "values": [{"measurement": "functional response (calcium activity peak parameters) to control compound", "setting": "PFC-like spheroids [2]", "value": "increases in peak count and rate and decreases in peak amplitude"}, {"measurement": "reversal of APOE4-induced deficits in peak count and spacing", "setting": "APOE4 PFC-like spheroids", "value": "reverse deficits caused by APOE4 GABA neurons; also recorded: restore deficits in peak count"}, {"measurement": "functional response (calcium activity peak parameters) to control compound", "setting": "VTA-like spheroids [3]", "value": "increases in peak count and rate and decreases in peak amplitude"}]}
{"smiles": "NCc1cc(=O)[nH]o1", "note": "[Muscimol]", "values": [{"measurement": "effect on calcium activity peak parameters compared to DMSO controls", "setting": "VTA-like spheroids [4]", "value": "total inhibition of calcium activity that lasted throughout the entire recording period"}, {"measurement": "effect on calcium activity peak parameters compared to DMSO controls", "setting": "PFC-like spheroids [5]", "value": "total inhibition of calcium activity that lasted throughout the entire recording period"}, {"measurement": "functional response (calcium activity peak parameters) to control compound", "setting": "PFC-like spheroids [2]", "value": "complete inhibition of activity that began immediately after treatment and persisted for at least 60-min"}, {"measurement": "functional response (calcium activity peak parameters) to control compound", "setting": "VTA-like spheroids [3]", "value": "complete inhibition of activity that began immediately after treatment and persisted for at least 60-min"}]}
{"smiles": "CCN1CCCC1CNC(=O)c1cc(S(N)(=O)=O)ccc1OC", "note": "(stereo not drawn) [Sulpiride]", "values": [{"measurement": "effect on calcium activity peak parameters compared to DMSO controls", "setting": "VTA-like spheroids [4]", "value": "did not impact calcium activity, though there was a statistical trend toward significantly increasing PkCt 1-min after treatment"}, {"measurement": "effect on calcium activity peak parameters compared to DMSO controls", "setting": "PFC-like spheroids [5]", "value": "significantly increased PkCt and PpM while decreasing PkSp 70-min after treatment"}, {"measurement": "functional response (calcium activity peak parameters) to control compound", "setting": "PFC-like spheroids [2]", "value": "increased peak count and rate while decreasing peak spacing"}, {"measurement": "functional response (calcium activity peak parameters) to control compound", "setting": "VTA-like spheroids [3]", "value": "no changes were observed in measures of peak frequency but increases in peak width and peak decay time were observed"}]}
